Data reported in US8629242B2, “Methods of inhibiting calcineurin with ApoE analogs” (Cognosci, Inc., priority 2007, dated 2014).
Where a SMILES comes first, the peptide text is derived from it. [ ]: non-standard residue; d: D form. Aib = CC(C)(N)C(=O)O

Tests used:
cerebellar slices = experiment: Lysolecithin-induced demyelination in organotypic cerebellar slice culture; assay type: cell-based, rat
Protocol: FIG. 7. COG 112 promotes remyelination in a lysolecithin-induced demyelination model in cerebellum slice culture. Cerebellum slices from postnatal day 10 rat pups were cultured for 7 days. Lysolecithin was added to a final concentration of 0.5 mg/ml and then removed after incubation overnight (15˜17 hr). 1 μM COG 112 was added to the slice and cultured for 5 days. The cerebellar slices were either immunohistologically stained with MBP; or collected and lysed for western blotting with myelin marker MBP. (A) naïve slice; (B) 2 days after lysolecithin treatment; (C) day 7 after lysolecithin treatment; (D) day 7 after lysolecithin treatment with COG 112 added on day 3; (E) Western blot of cerebellar lysates probed for MBP; (F) Densitometry analysis of blots probed for MBP. The density of each MBP band was normalized to density of β-actin band. One-way ANOVA was used for statistical analysis. n=4
FIG. 8. COG 112 prevents lysolecithin-induced cell death of oligodendrocytes in cerebellum slice culture. Cerebellum slices from postnatal day 10 rat pups were cultured for 7 days. Lysolecithin was added to a final concentration of 0.5 mg/ml with and without COG 112 (1 μM). After incubation overnight (16 hr), medium was replaced with fresh lysolecithin-free medium, but still containing COG 112 for the COG 112 treatment group. After two days, the cerebellar slices were collected and lysed for western blotting with myelin marker MBP (left panel) and oligodendrocyte marker CNPase (right panel). The density of each MBP or CNPase band was normalized to the density of the β-actin band. One-way ANOVA was used for statistical analysis. n=4, * p<0.01.
FIG. 19. COG 345 promotes remyelination in lysolecithin-induced demyelination model of cerebellum slices. Significant demyelination was induced by lysolecithin (0.5 mg/ml) in cerebellar slices. COG 112 or COG 345 (1 μM) was added on day 3 when full demyelination was achieved. 4 days later, the slices were fixed and double stained with myelin marker MBP (green) and Purkinje cell marker calbindin (red). (A) Untreated-slices; (B) lysolecithin-treated slices; (C) COG 112-treated slices after lysolecithin exposure; (D) COG 345-treated slices after lysolecithin exposure. E-F. ApoE analogs protect OPCs from LPS-induced cell death in OPC/microglia mixed culture. OPCs and microglia derived from brain culture of P2 rat pups were plated in 96-well plates in 1:1 ratio. LPS (10 ng/ml) together with 1 μM of the indicated ApoE analogs was added to the cultures. After 24 hours, OPC cell death was quantified by LDH assay (E) and MTT assay (F). Statistical analysis was conducted by one-way ANOVA followed by Dunnett comparison vs. LPS group. * P<0.01, ** P<0.001, n=3.
The effect of COG peptides (i.e. ApoE analogs) on remyelination in a second model of demyelination was examined. For this series of experiments, a lysolecithin-induced in vitro demyelination model in an organotypic cerebellar slice culture was used. Parasagittal slices of postnatal Day 10 (P10) rat cerebellum were cut at 400 μm using a Tissue Slicer (SD Instruments, Grants Pass, Oreg.). After culture in conditioned medium for 7 days in vitro (DIV), fresh medium with lysolecithin (0.5 mg/ml) was added to the slice and incubated overnight (15-17 hours) at 37° C. The lysolecithin-containing medium was then replaced with fresh medium without lysolecithin. On day 3, COG 112 (1 μM) was added to the slice with fresh medium. After incubation for 5 days, the cerebellar slices were either immunohistologically stained for myelin basic protein (MBP), a myelin marker, (FIG. 7A-D) or lysed for western blotting and subsequent probing for MBP (FIGS. 7E and F). […] Similar results were obtained from the Western blot analysis of lysates of the cerebellar slices (FIGS. 7E and F). […] In addition, the blots of cerebellar slice lysate were also probed for oligodendrocyte (OL) marker 2′,3′-Cyclic Nucleotide 3′-Phosphodiesterase (CNPase). […]

microglia cell line BV2 = experiment: LPS-induced NO and TNF-α release in BV2 microglia; assay type: cell-based, murine; details: LPS 10 ng/ml, 24 hours
Protocol: FIG. 16. […] Series concentrations of ApoE analogs were added to culture medium together with LPS (10 ng/ml). 24 hours later, culture medium was collected for measurement of NO by Griess assay or TNF-α by ELISA. […] ApoE analogs (10 μM) were added to the cell medium of human macrophage U937 5 minutes prior to PMA+LPS treatment. The release of superoxide in culture medium was measured by Luminol assay kit (Calbiochem).
The murine microglia cell line BV2 was used as the first screening platform to compare the potency of ApoE analogs in anti-inflammatory activity. In response to LPS, BV2 produces amounts of reactive radical NO and inflammatory cytokines, such as TNF-α and IL-6. We stimulated the cells with LPS (10 ng/ml) in the presence of several concentrations of each of the ApoE analogs. We measured NO in medium by Griess assay and TNF-α by ELISA 24 hours after LPS stimulation of the cells. The IC50 value was calculated for each of the ApoE analogs.

[1] = 1 μM added on day 3 after lysolecithin, 5 days
[2] = 1 μM added together with lysolecithin, 2 days after

Molecule	myelination (MBP/calbindin double staining) (cerebellar slices; 1 μM added three days after lysolecithin, 4 days)	activity in suppression of microglia activation (NO by Griess assay, TNF-α by ELISA) (microglia cell line BV2)	MBP levels (Western blot) (cerebellar slices; [1])	level of MBP protein (immunostaining) (cerebellar slices; [1])	prevention of lysolecithin-induced demyelination (MBP Western blot) (cerebellar slices; [2])	prevention of oligodendrocyte cell death (CNPase Western blot) (cerebellar slices; [2])	level of CNPase (Western blot) (cerebellar slices; 1 μM post-treatment, data not shown)
CC(=O)NC(=N)NCCC[C@H](NC(=O)[C@H](CCCCN)NC(=O)[C@H](CCCNC(=N)N)NC(=O)[C@H](CC(C)C)NC(=O)[C@H](CCCCN)NC(=O)[C@H](CCCNC(=N)N)NC(=O)[C@H](CC(C)C)NC(=O)C(C)(C)NC(=O)[C@H](CO)NC(=O)[C@H](C)NC(=O)[C@H](CC(C)C)NC(=O)[C@H](CCCNC(=N)N)NC(=O)[C@@H](NC(=O)[C@H](CCCNC(=N)N)NC(=O)[C@H](CC(C)C)NC(C)=O)C(C)C)C(=O)N[C@@H](CC(C)C)C(=O)N[C@@H](CC(C)C)C(N)=O [COG 345, acetyl-LRVRLAS-Aib-LRKLRK(acetyl-Arg)LL-amide] (Ac-LRVRLAS[Aib]LRKLRKR(Ac)LL-NH2)	dramatically restored myelination	clearly superior to that of COG 133	–	–	–	–	–
Ac-RQIKIWFQNRRMKWKKCLRVRLASHLRKLRKRLL-NH2 [COG 112]	–	clearly superior to that of COG 133	increased MBP levels	robustly elevated	did not prevent lysolecithin-induced demyelination	did prevent oligodendrocyte cell death	significantly increased
